Test results published in US6737383B1, “Herbicidal oxadiazolidines” (priority 1999, dated 2004).

Assays:
wild oat = test: Test B pre/postemergence wild oat; format: in vivo, Avena fatua
Method in brief: (§1)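 Response is a visual 0-to-10 score relative to untreated plants, where 0 means no effect and 10 means complete control, taken twelve to sixteen days after application. Treatments went onto soil at planting and onto foliage of 1- to 4-leaf plants, using a surfactant-containing non-phytotoxic solvent.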

duck salad = test: Test B flood test duck salad; format: in vivo, Heteranthera limosa
Method in brief: (§2)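 Read-out is a visual response score from 0 (no effect) to 10 (complete control), assigned by comparison with untreated controls. Treatment was applied at the 2-leaf stage, and plants stayed in the greenhouse for twelve to sixteen days before scoring.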

pigweed = test: Test B pre/postemergence pigweed; format: in vivo, Amaranthus retroflexus
Method in brief: as §1

wheat = test: Test B pre/postemergence wheat; format: in vivo, Triticum aestivum
Method in brief: as §1

soybean = test: Test B pre/postemergence soybean; format: in vivo, Glycine max
Method in brief: as §1

bamyardgrass = test: Test B flood test barnyardgrass; format: in vivo, Echinochloa crus-galli
Method in brief: as §2

rape = test: Test B pre/postemergence rape; format: in vivo, Brassica napus
Method in brief: as §1

bedstraw = test: Test B pre/postemergence bedstraw; format: in vivo, Galium aparine
Method in brief: as §1

surinam grass = test: Test B pre/postemergence surinam grass; format: in vivo, Brachiaria decumbens
Method in brief: as §1

sugar beet = test: Test B pre/postemergence sugar beet; format: in vivo, Beta vulgaris
Method in brief: as §1

purple nutsedge = test: Test B pre/postemergence purple nutsedge; format: in vivo, Cyperus rotundus
Method in brief: as §1

smallflower flatsedge = test: Test B flood test smallflower flatsedge; format: in vivo, Cyperus difformis
Method in brief: as §2

crabgrass = test: Test B pre/postemergence crabgrass; format: in vivo, Digitaria sanguinalis
Method in brief: as §1

cocklebur = test: Test B pre/postemergence cocklebur; format: in vivo, Xanthium strumarium
Method in brief: as §1

morningglory = test: Test B pre/postemergence morningglory; format: in vivo, Ipomoea hederacea
Method in brief: as §1

corn = test: Test B pre/postemergence corn; format: in vivo, Zea mays
Method in brief: as §1

blackgrass = test: Test B pre/postemergence blackgrass; format: in vivo, Alopecurus myosuroides
Method in brief: as §1

giant foxtail = test: Test B pre/postemergence giant foxtail; format: in vivo, Setaria faberii
Method in brief: as §1

rice = test: Test B flood test rice; format: in vivo, Oryza sativa
Method in brief: as §2

velvetleaf = test: Test B pre/postemergence velvetleaf; format: in vivo, Abutilon theophrasti
Method in brief: as §1

[1] = Postemergence, Rate 500 g/ha, scale of 0 to 10 where 0 is no effect and 10 is complete control
[2] = Preemergence, Rate 62 g/ha, scale 0 to 10 (0 no effect, 10 complete control)
[3] = Preemergence, Rate 125 g/ha, scale of 0 to 10 where 0 is no effect and 10 is complete control
[4] = Preemergence, Rate 250 g/ha, scale 0 to 10, 0 is no effect, 10 is complete control
[5] = Preemergence, Rate 500 g/ha, scale 0 to 10, 0 is no effect, 10 is complete control
[6] = Rate 62 g/ha, flood test species, Pre-emergence, visual evaluation after twelve to sixteen days
[7] = Rate 125 g/ha, under heading Pre-emergence, flood test species, visual evaluation after twelve to sixteen days
[8] = Rate 250 g/ha, Pre-emergence, flood-test species, scale 0 to 10, 0 is no effect, 10 is complete control
[9] = Postemergence, Rate 250 g/ha, scale 0 to 10, 0 is no effect, 10 is complete control
[10] = Preemergence, Rate 250 g/ha, scale of 0 to 10 where 0 is no effect and 10 is complete control
[11] = Postemergence, Rate 125 g/ha, scale 0 to 10, 0 is no effect, 10 is complete control
[12] = Rate 62 g/ha, Postemergence, scale of 0 to 10 where 0 is no effect and 10 is complete control

CC(C)N(C(=O)n1oc(=O)n(C(C)C2CC2)c1=O)c1ccc(F)cc1 (stereo not drawn) [Compound 404]
3: Plant response rating, Wild oats (wild oat; [2]) | Wheat plant response rating (wheat; [1]) | Soybean plant response rating (soybean; [5]) | Plant response rating, Sugarbeets (sugar beet; [3]) | Plant response rating, Crabgrass (crabgrass; [11]) | Cocklebur plant response rating (cocklebur; [1])
0: Plant response rating, Ducksalad (0 to 10 scale, 0 is no effect, 10 is complete control) (duck salad; [6]) | Plant response rating, Wheat (wheat; [2]) | Plant response rating, Soybean (soybean; [2]) | Plant response rating, Soybean (soybean; [3]) | Soybean plant response rating (soybean; [4]) | Plant response rating, Bedstraw (bedstraw; [2]) | Plant response rating, Sugarbeets (sugar beet; [2]) | Plant response rating, Nutsedge (purple nutsedge; [9]) | Nutsedge plant response rating (purple nutsedge; [1]) | Plant response rating, Nutsedge (purple nutsedge; [2]) | Plant response rating, Nutsedge (purple nutsedge; [3]) | Nutsedge plant response rating (purple nutsedge; [4]) | Nutsedge plant response rating (purple nutsedge; [5]) | Plant response rating, S. Flatsedge (0 to 10 scale, 0 is no effect, 10 is complete control) (smallflower flatsedge; [6]) | S. Flatsedge plant response rating (0 to 10 scale, 0 is no effect, 10 is complete control) (smallflower flatsedge; [7]) | Crabgrass plant response rating (crabgrass; [12]) | Plant response rating, Cocklebur (cocklebur; [2]) | Plant response rating, Cocklebur (cocklebur; [3]) | Cocklebur plant response rating (cocklebur; [4]) | Cocklebur plant response rating (cocklebur; [5]) | Cocklebur plant response rating (cocklebur; [12]) | Plant response rating, Morningglory (morningglory; [2]) | Plant response rating, Corn (corn; [11]) | Plant response rating, Corn (corn; [9]) | Plant response rating, Corn (corn; [2]) | Corn plant response rating (corn; [12]) | Plant response rating, Rice (0 to 10 scale, 0 is no effect, 10 is complete control) (rice; [6]) | Rice plant response rating (0 to 10 scale, 0 is no effect, 10 is complete control) (rice; [7]) | Plant response rating, Velvetleaf (velvetleaf; [9]) | Plant response rating, Velvetleaf (velvetleaf; [2])
6: Plant response rating, Redroot pigweed (pigweed; [3]) | Plant response rating, Soybean (soybean; [9]) | B. signalgrass plant response rating (surinam grass; [1]) | Sugarbeets plant response rating (sugar beet; [4]) | Corn plant response rating (corn; [5]) | Plant response rating, Blackgrass (blackgrass; [2]) | Velvetleaf plant response rating (velvetleaf; [1])
7: Redroot pigweed plant response rating (pigweed; [1]) | Soybean plant response rating (soybean; [1]) | Rape plant response rating (rape; [4]) | Plant response rating, Morningglory (morningglory; [9]) | Plant response rating, Blackgrass (blackgrass; [3]) | Rice plant response rating (rice; [8]) | Velvetleaf plant response rating (velvetleaf; [5])
8: Wild oats plant response rating (wild oat; [1]) | Plant response rating, Wild oats (wild oat; [3]) | Rape plant response rating (rape; [1]) | Rape plant response rating (rape; [5]) | Plant response rating, Bedstraw (bedstraw; [9]) | B. signalgrass plant response rating (surinam grass; [10]) | Sugarbeets plant response rating (sugar beet; [5]) | S. Flatsedge plant response rating (smallflower flatsedge; [8]) | Crabgrass plant response rating (crabgrass; [1])
9: Barnyardgrass plant response rating (0 to 10 scale, 0 is no effect, 10 is complete control) (bamyardgrass; [7]) | Barnyardgrass plant response rating (bamyardgrass; [8]) | Blackgrass plant response rating (blackgrass; [10]) | Plant response rating, Giant foxtail (giant foxtail; [11]) | Plant response rating, Giant foxtail (giant foxtail; [9]) | Giant foxtail plant response rating (giant foxtail; [1])
10: Wild oats plant response rating (wild oat; [4]) | Wild oats plant response rating (wild oat; [5]) | Redroot pigweed plant response rating (pigweed; [4]) | Redroot pigweed plant response rating (pigweed; [5]) | Bedstraw plant response rating (bedstraw; [10]) | Bedstraw plant response rating (bedstraw; [5]) | B. signalgrass plant response rating (surinam grass; Preemergence, Rate 500 g/ha, scale of 0 to 10 where 0 is no effect and 10 is complete control) | Plant response rating, Crabgrass (crabgrass; [2]) | Plant response rating, Crabgrass (crabgrass; [3]) | Crabgrass plant response rating (crabgrass; [4]) | Crabgrass plant response rating (crabgrass; [5]) | Morningglory plant response rating (morningglory; [1]) | Plant response rating, Blackgrass (blackgrass; [9]) | Blackgrass plant response rating (blackgrass; [1]) | Blackgrass plant response rating (blackgrass; [5]) | Plant response rating, Giant foxtail (giant foxtail; [2]) | Plant response rating, Giant foxtail (giant foxtail; [3]) | Giant foxtail plant response rating (giant foxtail; [4]) | Giant foxtail plant response rating (giant foxtail; [5])
1: Ducksalad plant response rating (0 to 10 scale, 0 is no effect, 10 is complete control) (duck salad; [7]) | Plant response rating, Rape (rape; [2]) | Plant response rating, Sugarbeets (sugar beet; [9]) | Corn plant response rating (corn; [1]) | Plant response rating, Velvetleaf (velvetleaf; [3])
5: Ducksalad plant response rating (duck salad; [8]) | Plant response rating, Redroot pigweed (pigweed; [9]) | Wheat plant response rating (wheat; [5]) | Plant response rating, Crabgrass (crabgrass; [9]) | Morningglory plant response rating (morningglory; [5]) | Blackgrass plant response rating (blackgrass; [12]) | Giant foxtail plant response rating (giant foxtail; [12]) | Velvetleaf plant response rating (velvetleaf; [4])
2: Plant response rating, Redroot pigweed (pigweed; [2]) | Plant response rating, Wheat (wheat; [3]) | Plant response rating, B. signalgrass (surinam grass; [11]) | Plant response rating, B. signalgrass (surinam grass; [2]) | B. signalgrass plant response rating (surinam grass; [12]) | Plant response rating, Cocklebur (cocklebur; [11]) | Plant response rating, Cocklebur (cocklebur; [9]) | Plant response rating, Morningglory (morningglory; [3]) | Plant response rating, Corn (corn; [3]) | Corn plant response rating (corn; [4])
4: Wheat plant response rating (wheat; [4]) | Plant response rating, Barnyardgrass (0 to 10 scale, 0 is no effect, 10 is complete control) (bamyardgrass; [6]) | Plant response rating, Rape (rape; [9]) | Plant response rating, Rape (rape; [3]) | Plant response rating, B. signalgrass (surinam grass; [3]) | Sugarbeets plant response rating (sugar beet; [1]) | Morningglory plant response rating (morningglory; [4])
